Results on 5 molecules are retold here after patent US20060073154A1 (priority 2001, published 2006).

Assay [1] concerns streptococcal strain D471 adherence to Detroit 562 pharyngeal cells. Type of assay: cell-based, S. pyogenes.
Assay [2] deals with strain JRS75 adherence to Detroit 562 pharyngeal cells. The assay can be described thus: Pharyngeal cell adherence assay with isogenic M-negative mutant. Type of assay: cell-based, S. pyogenes. Particulars: bacteria preincubated with sialic acid. As to the method:
Pharyngeal cell adherence and invasion assay. Streptococcal adherence to and invasion of the human pharyngeal cell line, Detroit 562, was assayed by modification of a procedure described previously (Talbot, U. M., et al., Infect. Immun. 64:3772-3777, 1996). Overnight cultures of streptococci were pelleted by centrifugation and washed twice in sterile PBS. The cultures were resuspended in MEM and diluted to a final concentration of 5×10^7 CFU/ml, and 1 ml aliquots were inoculated into each well containing washed Detroit cell monolayers. At least 3 wells were used for each bacterial strain or culture condition. Following a 3 h incubation period with the bacteria at 37° C., the monolayers were washed three times in PBS.
For the bacterial invasion assay, 1 ml of MEM supplemented with penicillin (10 μg/ml) and gentamicin (200 μg/ml) was added to each well (to kill extracellular bacteria) and incubated for 1 h at 37° C. […] The total number of adherent streptococci was calculated as the difference between the total number of adherent and invasive bacteria and the number of invasive bacteria alone.
Effect of monosaccharides on streptococcal adherence to pharyngeal cells. The effect of various monosaccharides on streptococcal adherence to pharyngeal cell monolayers was assessed in inhibition assays. […]

For `CC(=O)N[C@H]1[C@H]([C@H](O)[C@H](O)CO)O[C@@](O[C@H]2[C@@H](O)[C@@H](CO)O[C@@H](O[C@H]3[C@H](O)[C@@H](O)C(O)O[C@@H]3CO)[C@@H]2O)(C(=O)O)C[C@@H]1O` (stereo partly drawn) [3′SL, NeuAcα2-3Galβ1-4Glc], the “effect on adherence of strain D471 to cultured pharyngeal cells” value in assay [1] was “no significant effect”.
Regarding `CC(=O)NC1C(O)CC(OCC2OC(OC3C(CO)OC(O)C(O)C3O)C(O)C(O)C2O)(C(=O)O)OC1C(O)C(O)CO` (stereo not drawn) [6′SL, NeuACα2-6Galβ1-4Glc], the “reduced binding of strain D471 to pharyngeal cells” value in assay [1] was “approximately 85%”.
`CC(=O)N[C@H]1[C@H]([C@H](O)[C@H](O)CO)OC(O)(C(=O)O)C[C@@H]1O` (stereo partly drawn) [sialic acid, N-acetylneuraminic acid]: in assay [1], the “effect on adherence of strain D471 to pharyngeal cells” value was “significantly decreased”. The “effect on adherence of JRS75 (M-negative mutant) to pharyngeal cells” value in assay [2] is “not affected”.
Consider “transferrin: sialylated glycoprotein whose oligosaccharides terminate only in α2-6 linked sialic acid”, for which the “reduced adherence of strain D471 to cultured pharyngeal cells” value in assay [1] is “approximately 90%”.

B1: Fetuin: sialylated glycoprotein containing both α2-3 and α2-6 sialic acid linkages (protein, UniProt P12763 19-359, looked up)
Alpha-2-HS-glycoprotein: IPLDPVAGYKEPACDDPDTEQAALAAVDYINKHLPRGYKHTLNQIDSVKVWPRRPTGEVYDIEIDTLETTCHVLDPTPLANCSVRQQTQHAVEGDCDIHVLKQDGQFSVLFTKCDSSPDSAEDVRKLCPDCPLLAPLNDSRVVHAVEVALATFNAESNGSYLQLVEISRAQFVPLPVSVSVEFAVAATDCIAKEVVDPTKCNLLAEKQYGFCKGSVIQKALGGEDVRVTCTLFQTQPVIPQPQPDGAEAEAPSAVPDAAGPTPSAAGPPVASVVVGPSVVAVPLPLHRAHYDLRHTFSGVASVESSSGEAFHVGKTPIVGQPSIPGGPVRLCPGRIRYFKI
Regarding B1, in assay [1], the “decrease of adherence of strain D471 to pharyngeal cells” value is reported as “approximately 30%”.
